The values that follow are results of earlier work, collected in patent US8603436B2, “Methods and compositions for targeted drug delivery” (priority 2000, dated 2013).

The subject of data set [1] is glioblastoma cells. The settings on record: in vitro.
Data set [2] deals with tumor. The settings on record: tumor models and individual patients.
The test system of data set [3] is ssr subtypes present in rat pancreas carcinoma membranes. The settings on record: free (unlabeled) peptide.
Data set [4] deals with tumor. The settings on record: in vivo.
In data set [5] the test system is lysosomes.

Read-outs that look alike come from different tables or passages of the source. Square brackets hold non-standard residues; d marks the D form. Peptide text beside a SMILES is read from it. * marks the point of attachment. X1 = NCCCC[C@H](NC(=O)[C@H](CS)NC(=O)[C@H](CCCCN)NC(=O)[C@@H](N)CNC(=O)C*)C(N)=O; NMeF = CN[C@@H](Cc1ccccc1)C(=O)O; hCys = N[C@@H](CCS)C(=O)O Some results are limits rather than exact numbers.

For the compound `N[C@@H](Cc1ccc(B(O)O)cc1)C(=O)O` [BPA, p-boronophenylalanine], in data set [1], the “concentration in lysosomes relative to cytosolic concentration” value was 100 fold lower, the “concentration in microsomes relative to cytosolic concentration” value is reported as 125 fold lower, the “concentration in nuclei relative to cytosolic concentration” value was 80 fold lower and the “time to maximum uptake into whole glioblastoma cells” value is given as 1 h. The cytosolic concentration in data set [1] (at maximum uptake) is recorded as 250 ng per million of glioma cells. The tumor enrichment factor in data set [2] was no more than 3.
Regarding `CC(C)[C@@H]1NC(=O)[C@H](CCCCN)NC(=O)[C@@H](Cc2c[nH]c3ccccc23)NC(=O)[C@H](Cc2ccc(O)cc2)NC(=O)[C@H](Cc2ccccc2)N(C)C(=O)[C@H](CCSCC(=O)NC[C@H](N)C(=O)N[C@@H](CCCCN)C(=O)N[C@@H](CS)C(=O)N[C@@H](CCCCN)C(N)=O)NC1=O` [depreotide] (cyclo([hCys](X1)[NMeF]Y[dW]KV)), in data set [3], the “apparent affinity of the free peptide compared with octreotide” value is recorded as “one order of magnitude lower”.
For the compound “beta-5-o-carboranyl-2′-deoxyuridine [D-CDU]”, the tumor enrichment factor in data set [4] is given as roughly 100.
For boronated protoporphyrin [BOPP], the subcellular accumulation entry in data set [5] is “accumulate in lysosomes, but not in mitochondria or the nucleus”.
